From ChEMBL document CHEMBL1148972, “Isomalabaricane-type compounds from the marine sponge Rhabdastrella aff. distincta” (J Nat Prod, 2004)
Values after ≈ are worked out from the molar mass of the structure shown.

What was measured:
Format in all cases: functional, cell-based
[1] = test system: HeLa; test: Cytotoxicity against human HeLa cells after 48 hrs by MTT assay
[2] = test system: Bel-7402; test: Cytotoxicity against human Bel7402 cells after 48 hrs by MTT assay; settings: Bel-7402, 48 h
[3] = test system: BGC-823; test: Cytotoxicity against human BGC823 cells after 48 hrs by MTT assay; settings: BGC-823, 48 h
[4] = Cytotoxicity against human […] cells after 48 hrs by MTT assay
[5] = Cytotoxicity against human PC-3MIE8 cells after 48 hrs by MTT assay; settings: PC-3MIE8, 48 h
[6] = test system: HL-60; test: Cytotoxicity against human HL60 cells after 48 hrs by MTT assay; settings: HL-60, 48 h

SMILES | IC50 [1] | IC50 [2] | IC50 [3] | IC50 [4] | IC50 [5] | IC50 [6]
CC(=O)O[C@H]1CC[C@@]2(C)[C@@H](CC[C@]3(C)\C(=C(C)/C=C/C=C(\C)c4ccc(C)c(=O)o4)C(=O)C[C@@H]23)C1(C)C [STELLETTIN C] | > 5 µg/mL | > 5 µg/mL | > 5 µg/mL | > 5 µg/mL | 3.1 µg/mL (≈ 6.12 µM) | > 5 µg/mL
COC(=O)/C(C)=C/C=C/C(C)=C/C=C/C(C)=C1/C(=O)C[C@H]2[C@@]3(C)CCC(=O)C(C)(C)[C@@H]3CC[C@]12C [RHABDASTRELLIC ACID A METHYL ESTER] | > 5 µg/mL | > 5 µg/mL | > 5 µg/mL | > 5 µg/mL | > 5 µg/mL | > 5 µg/mL
CC(=O)/C=C\C(=O)/C(C)=C/C=C/C(C)=C1/C(=O)C[C@H]2[C@@]3(C)CCC(=O)C(C)(C)[C@@H]3CC[C@]12C | > 5 µg/mL | > 5 µg/mL | > 5 µg/mL | > 5 µg/mL | > 5 µg/mL | > 5 µg/mL
CC(=O)/C=C\C(=O)/C(C)=C/C=C/C(C)=C1\C(=O)C[C@H]2[C@@]3(C)CC[C@H](OC(C)=O)C(C)(C)[C@@H]3CC[C@]12C [ISOGEODITIN B] | 3 µg/mL (≈ 6.06 µM) | 3.9 µg/mL (≈ 7.88 µM) | 2.2 µg/mL (≈ 4.45 µM) | 2.2 µg/mL (≈ 4.45 µM) | 3.4 µg/mL (≈ 6.87 µM) | 0.5 µg/mL (≈ 1.01 µM)
CC1=CC[C@@H](/C(C)=C/C=C/C(C)=C2\C(=O)C[C@H]3[C@@]4(C)CCC(=O)C(C)(C)[C@@H]4CC[C@]23C)OC1=O [22,23-DIHYDROSTELLETTIN B] | > 5 µg/mL | > 5 µg/mL | > 5 µg/mL | > 5 µg/mL | > 5 µg/mL | > 5 µg/mL
COc1cc2c(c(OC)c1OC)-c1ccc(OC)c(=O)cc1[C@@H](NC(C)=O)CC2 [COLCHICINE] | 0.1 µg/mL (≈ 0.25 µM) | 0.3 µg/mL (≈ 0.751 µM) | 0.6 µg/mL (≈ 1.5 µM) | 0.2 µg/mL (≈ 0.501 µM) | 0.7 µg/mL (≈ 1.75 µM) | 1.6 µg/mL (≈ 4.01 µM)
CC(=O)/C=C\C(=O)/C(C)=C/C=C/C(C)=C1\C(=O)C[C@H]2[C@@]3(C)CCC(=O)C(C)(C)[C@@H]3CC[C@]12C [ISOGEODITIN A] | 0.35 µg/mL (≈ 0.777 µM) | 3.7 µg/mL (≈ 8.21 µM) | 0.47 µg/mL (≈ 1.04 µM) | 1.2 µg/mL (≈ 2.66 µM) | 0.07 µg/mL (≈ 0.155 µM) | 0.13 µg/mL (≈ 0.288 µM)
CC(/C=C/C=C(C)/C=C/C=C(\C)C(=O)O)=C1/C(=O)C[C@H]2[C@@]3(C)CCC(=O)C(C)(C)[C@@H]3CC[C@]12C [STELLETIN E] | > 5 µg/mL | > 5 µg/mL | > 5 µg/mL | > 5 µg/mL | > 5 µg/mL | > 5 µg/mL
C\C(=C/C=C/C(C)=C1/C(=O)C[C@H]2[C@@]3(C)CCC(=O)C(C)(C)[C@@H]3CC[C@]12C)c1ccc(C)c(=O)o1 [STELLETIN A] | > 5 µg/mL | > 5 µg/mL | > 5 µg/mL | > 5 µg/mL | > 5 µg/mL | > 5 µg/mL
CC(/C=C/C=C(\C)c1ccc(C)c(=O)o1)=C1/C(=O)C[C@H]2[C@@]3(C)CCC(=O)C(C)(C)[C@@H]3CC[C@]12C [STELLETTIN B] | > 5 µg/mL | > 5 µg/mL | > 5 µg/mL | > 5 µg/mL | > 5 µg/mL | 0.2 µg/mL (≈ 0.432 µM)
COC(=O)/C(C)=C/C=C/C(C)=C/C=C/C(C)=C1\C(=O)C[C@H]2[C@@]3(C)CCC(=O)C(C)(C)[C@@H]3CC[C@]12C [STELLETTIN E METHYL ESTER] | > 5 µg/mL | > 5 µg/mL | > 5 µg/mL | > 5 µg/mL | > 5 µg/mL | 4.2 µg/mL (≈ 8.77 µM)
CC(=O)/C=C/C(=O)/C(C)=C/C=C/C(C)=C1\C(=O)C[C@H]2[C@@]3(C)CCC(=O)C(C)(C)[C@@H]3CC[C@]12C [GEODITIN A] | > 5 µg/mL | > 5 µg/mL | > 5 µg/mL | > 5 µg/mL | > 5 µg/mL | > 5 µg/mL
CC(=O)/C=C/C(=O)/C(C)=C/C=C/C(C)=C1\C(=O)C[C@H]2[C@@]3(C)CC[C@H](OC(C)=O)C(C)(C)[C@@H]3CC[C@]12C [GEODITIN B] | > 5 µg/mL | > 5 µg/mL | > 5 µg/mL | > 5 µg/mL | > 5 µg/mL | > 5 µg/mL
CC(/C=C/C=C(\C)C(=O)O)=C\C=C\C(C)=C1\C(=O)C[C@H]2[C@@]3(C)CCC(=O)C(C)(C)[C@@H]3CC[C@]12C [RHABDASTRELLIC ACID A] | > 5 µg/mL | > 5 µg/mL | > 5 µg/mL | > 5 µg/mL | > 5 µg/mL | > 5 µg/mL
